Measurements reported in patent US20250057827A1, “CYTOTOXICITY TARGETING CHIMERAS FOR PROSTATE SPECIFIC MEMBRANE ANTIGEN-EXPRESSING CELLS” (GLAXOSMITHKLINE INTELLECTUAL PROPERTY DEVELOPMENT LIMITED, priority 2022, published 2025).

Target: T1, PSMA (target cells: LNCaP cells) (Homo sapiens, UniProt Q04609)
T1 construct: Target cells: LNCaP cells (typically 1000-20,000 cells per well); endogenous in cells; host or cells: LNCaP cells (target cells); Jurkat FcγRIIIa/NFAT-luciferase reporter cells also in the well
T1 sequence (Q04609 whole entry): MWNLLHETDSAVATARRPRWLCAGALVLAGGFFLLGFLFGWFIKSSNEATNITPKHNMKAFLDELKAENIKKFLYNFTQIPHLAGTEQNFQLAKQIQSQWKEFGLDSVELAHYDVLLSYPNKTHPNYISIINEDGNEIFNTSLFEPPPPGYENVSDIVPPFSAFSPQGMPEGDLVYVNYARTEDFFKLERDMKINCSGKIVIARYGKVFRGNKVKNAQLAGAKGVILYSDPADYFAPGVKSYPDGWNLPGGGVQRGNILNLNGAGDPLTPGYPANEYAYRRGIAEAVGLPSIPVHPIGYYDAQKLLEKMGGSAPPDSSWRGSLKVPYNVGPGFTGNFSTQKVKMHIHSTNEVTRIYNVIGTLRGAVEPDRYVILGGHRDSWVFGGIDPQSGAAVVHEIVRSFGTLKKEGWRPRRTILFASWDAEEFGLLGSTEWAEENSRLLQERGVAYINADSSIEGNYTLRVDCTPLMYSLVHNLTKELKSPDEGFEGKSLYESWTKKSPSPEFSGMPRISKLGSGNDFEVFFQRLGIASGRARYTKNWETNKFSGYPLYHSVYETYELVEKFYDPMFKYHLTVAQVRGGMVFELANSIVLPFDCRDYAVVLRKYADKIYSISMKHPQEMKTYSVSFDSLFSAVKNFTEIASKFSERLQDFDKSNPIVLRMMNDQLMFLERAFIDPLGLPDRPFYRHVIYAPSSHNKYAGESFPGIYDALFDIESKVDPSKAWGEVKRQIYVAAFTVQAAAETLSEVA
Test: Antibody dependent cellular cytotoxicity (ADCC) reporter assay
Type: cell-based
Design: key to ADCC Reporter Assay pEC50: Inactive: inactive = pEC50 < 5
Conditions: anti-cotinine antibody (SEQ ID NO: 11/12), Jurkat FcγRIIIa NFAT-luciferase reporter cells, 12-18 hours, EC50 in molar, average if more than one run; for EC50: read-out: ADCC Reporter Assay pEC50 (converted)
Description: An antibody dependent cellular cytotoxicity (ADCC) reporter assay was conducted using the following four assay components: (i) ARM compound of Formula (I) targeting PSMA (concentrations ranging from 1 pM to 10 μM); (ii) anti-cotinine antibody having a heavy chain sequence of SEQ ID NO: 11 and a light chain sequence of SEQ ID NO: 12 (rabbit variable region with human IgG1 Fc domain containing DE mutation (S239D/I332E)) (concentrations ranging from 0.01 μg/mL-200 μg/mL); (iii) Target cells: LNCaP cells (typically 1000-20,000 cells per well); and (iv) Reporter cells—Jurkat cells engineered to express FcγRIIIa with a reporter gene luciferase under the control of the NFAT promoter (typically 3000-75,000 cells per well). Reagents were combined in final volume of 20 μL in 384—well tissue culture treated plate. All four assay components were incubated together for about 12-18 hours. Thereafter, BioGlo Detection reagent (Promega) was added to the wells to lyse the cells and provide a substrate for the luciferase reporter protein.
Luminescence signal was measured on a microplate reader capable of measuring luminescence and signal: background was calculated by dividing the signal of a test well by the signal obtained when no compound of formula (I) was included in the assay. EC50 calculations were done using Graphpad Prism Software, specifically a nonlinear regression curve fit (Y=Bottom+(Top−Bottom)/(1+10^((Log EC50−X)*HillSlope))).
ARMs compounds of Formula (I) were tested for ADCC activity in the above assay in one or more experimental runs and the results are shown in Table 3 below. Potency of the compounds of Formula (I) is reported as a pEC50 values. The pEC50 value is the negative log of the EC50 value, wherein the EC50 value is half maximal effective concentration measured in molar (M). For compounds tested in more than one experimental run, the pEC50 value is reported as an average.

| SMILES | EC50 | ADCC Reporter Assay pEC50 |
| --- | --- | --- |
| CN1C(=O)C[C@H](C(=O)NCCO[C@H]2CC[C@H](OCCCC(=O)N[C@H]3CC[C@H](C(=O)N[C@@H](Cc4ccc5ccccc5c4)C(=O)NCCCC[C@H](NC(=O)N[C@@H](CCC(=O)O)C(=O)O)C(=O)O)CC3)CC2)[C@H]1c1cccnc1 (racemic) [Example 8, (((S)-1-Carboxy-5-((S)-2-((1R,4S)-4-(4-(((1S,4R)-4-(2-((2S,3S)-1-methyl-5-oxo-2-(pyridin-3-yl)pyrrolidine-3-carboxamido)ethoxy)cyclohexyl)oxy)butanamido)cyclohexane-1-carboxamido)-3-(naphthalen-2-yl)propanamido)pentyl)carbamoyl)-L-glutamic acid] | 2.24 nM | – |
| CN1C(=O)C[C@H](C(=O)NCCO[C@H]2CC[C@H](OCCCC(=O)N[C@H]3CC[C@H](C(=O)N4CCN(C(=O)CC[C@H](NC(=O)N[C@@H](CCC(=O)O)C(=O)O)C(=O)O)CC4)CC3)CC2)[C@H]1c1cccnc1 [Example 1, (((S)-1-Carboxy-4-(4-((1R,4R)-4-(4-(((1S,4R)-4-(2-((2S,3S)-1-methyl-5-oxo-2-(pyridin-3-yl)pyrrolidine-3-carboxamido)ethoxy)cyclohexyl)oxy)butanamido)cyclohexane-1-carbonyl)piperazin-1-yl)-4-oxobutyl)carbamoyl)-L-glutamic acid] | 50.1 nM | – |
| CN1C(=O)C[C@H](C(=O)NCCO[C@H]2CC[C@H](OCCCC(=O)N[C@H]3CC[C@H](C(=O)N[C@H]4CC[C@@H](NC(=O)CC[C@H](NC(=O)N[C@@H](CCC(=O)O)C(=O)O)C(=O)O)CC4)CC3)CC2)[C@H]1c1cccnc1 [Example 2, (((S)-1-Carboxy-4-(((1S,4S)-4-((1R,4S)-4-(4-(((1S,4R)-4-(2-((2S,3S)-1-methyl-5-oxo-2-(pyridin-3-yl)pyrrolidine-3-carboxamido)ethoxy)cyclohexyl)oxy)butanamido)cyclohexane-1-carboxamido)cyclohexyl)amino)-4-oxobutyl)carbamoyl)-L-glutamic acid] | 50.1 nM | – |
| CN1C(=O)C[C@H](C(=O)NCCO[C@H]2CC[C@H](OCCCC(=O)N[C@H]3CC[C@H](C(=O)NCCNC(=O)CC[C@H](NC(=O)N[C@@H](CCC(=O)O)C(=O)O)C(=O)O)CC3)CC2)[C@H]1c1cccnc1 [Example 3, (9S,13S)-1-((1R,4R)-4-(4-(((1S,4R)-4-(2-((2S,3S)-1-Methyl-5-oxo-2-(pyridin-3-yl)pyrrolidine-3-carboxamido)ethoxy)cyclohexyl)oxy)butanamido)cyclohexyl)-1,6,11-trioxo-2,5,10,12-tetraazapentadecane-9,13,15-tricarboxylic acid] | 126 nM | – |
| CN1C(=O)C[C@H](C(=O)NCCO[C@H]2CC[C@H](OCCCC(=O)N[C@H]3CC[C@H](C(=O)N[C@H]4CC[C@H](NC(=O)CC[C@H](NC(=O)N[C@@H](CCC(=O)O)C(=O)O)C(=O)O)CC4)CC3)CC2)[C@H]1c1cccnc1 [Example 4, (((S)-1-Carboxy-4-(((1R,4R)-4-((1R,4R)-4-(4-(((1S,4R)-4-(2-((2S,3S)-1-methyl-5-oxo-2-(pyridin-3-yl)pyrrolidine-3-carboxamido)ethoxy)cyclohexyl)oxy)butanamido)cyclohexane-1-carboxamido)cyclohexyl)amino)-4-oxobutyl)carbamoyl)-L-glutamic acid] | 50.1 nM | – |
| CN1C(=O)C[C@H](C(=O)NCCNC(=O)[C@H](Cc2ccccc2)NC(=O)[C@H](Cc2ccccc2)NC(=O)CCCCCCCNC(=O)CC[C@H](NC(=O)N[C@@H](CCC(=O)O)C(=O)O)C(=O)O)[C@H]1c1cccnc1 [Example 5, (7S,10S,24S,28S)-7,10-Dibenzyl-1-((2S,3S)-1-methyl-5-oxo-2-(pyridin-3-yl)pyrrolidin-3-yl)-1,6,9,12,21,26-hexaoxo-2,5,8,11,20,25,27-heptaazatriacontane-24,28,30-tricarboxylic acid] | 39.8 nM | – |
| CN1C(=O)C[C@H](C(=O)NCCO[C@H]2CC[C@H](OCCCC(=O)N[C@H]3CC[C@H](C(=O)NCCNC(=O)[C@H](Cc4ccccc4)NC(=O)[C@H](Cc4ccccc4)NC(=O)CCCCCCCNC(=O)CC[C@H](NC(=O)N[C@@H](CCC(=O)O)C(=O)O)C(=O)O)CC3)CC2)[C@H]1c1cccnc1 [Example 6, (7S,10S,24S,28S)-7,10-dibenzyl-1-((1R,4S)-4-(4-(((1S,4R)-4-(2-((2S,3S)-1-methyl-5-oxo-2-(pyridin-3-yl)pyrrolidine-3-carboxamido)ethoxy)cyclohexyl)oxy)butanamido)cyclohexyl)-1,6,9,12,21,26-hexaoxo-2,5,8,11,20,25,27-heptaazatriacontane-24,28,30-tricarboxylic acid] | 39.8 nM | – |
| CN1C(=O)C[C@H](C(=O)NCCOCCOCCOCCOCCOCCOCCOCCOCCOCCOCCOCCOCCC(=O)NCCNC(=O)[C@H](Cc2ccccc2)NC(=O)[C@H](Cc2ccccc2)NC(=O)CCCCCCCNC(=O)CC[C@H](NC(=O)N[C@@H](CCC(=O)O)C(=O)O)C(=O)O)[C@H]1c1cccnc1 [Example 7, (47S,50S,64S,68S)-47,50-Dibenzyl-1-((2S,3S)-1-methyl-5-oxo-2-(pyridin-3-yl)pyrrolidin-3-yl)-1,41,46,49,52,61,66-heptaoxo-5,8,11,14,17,20,23,26,29,32,35,38-dodecaoxa-2,42,45,48,51,60,65,67-octaazaheptacontane-64,68,70-tricarboxylic acid] | 126 nM | – |
| CN1C(=O)C[C@H](C(=O)NCCOCCOCCOCCOCCOCCOCCOCCOCCOCCOCCOCCOCCC(=O)N[C@@H](Cc2ccc3ccccc3c2)C(=O)NCCCC[C@H](NC(=O)N[C@@H](CCC(=O)O)C(=O)O)C(=O)O)[C@H]1c1cccnc1 [Example 9, (((S)-1-Carboxy-5-((S)-2-(1-((2S,3S)-1-methyl-5-oxo-2-(pyridin-3-yl)pyrrolidin-3-yl)-1-oxo-5,8,11,14,17,20,23,26,29,32,35,38-dodecaoxa-2-azahentetracontan-41-amido)-3-(naphthalen-2-yl)propanamido)pentyl)carbamoyl)-L-glutamic acid] | 8.91 nM | – |
| CN1C(=O)C[C@H](C(=O)N[C@@H](Cc2ccc3ccccc3c2)C(=O)NCCCC[C@H](NC(=O)N[C@@H](CCC(=O)O)C(=O)O)C(=O)O)[C@H]1c1cccnc1 [Example 10, (((S)-1-Carboxy-5-((S)-2-((2S,3S)-1-methyl-5-oxo-2-(pyridin-3-yl)pyrrolidine-3-carboxamido)-3-(naphthalen-2-yl)propanamido)pentyl)carbamoyl)-L-glutamic acid] | – | Inactive^1 |
